Experimental data from ChEMBL document CHEMBL4145445, “Design, synthesis and biological assessment of new thiazolylhydrazine derivatives as selective and reversible hMAO-A inhibitors” (Eur J Med Chem, 2018).

Columns and labels:
[1] = biological target: T1, Amine oxidase [flavin-containing] B (Homo sapiens, UniProt P27338); test: Inhibition of human MAO-B at 10^-4 to 10^-3 M using tyramine hydrochloride as substrate after 30 mins by Amplex Red reagent based horseradish peroxidase enzyme-coupled fluorescence assay relative to control; conditions: 0.5 h
T1 sequence (P27338 whole entry): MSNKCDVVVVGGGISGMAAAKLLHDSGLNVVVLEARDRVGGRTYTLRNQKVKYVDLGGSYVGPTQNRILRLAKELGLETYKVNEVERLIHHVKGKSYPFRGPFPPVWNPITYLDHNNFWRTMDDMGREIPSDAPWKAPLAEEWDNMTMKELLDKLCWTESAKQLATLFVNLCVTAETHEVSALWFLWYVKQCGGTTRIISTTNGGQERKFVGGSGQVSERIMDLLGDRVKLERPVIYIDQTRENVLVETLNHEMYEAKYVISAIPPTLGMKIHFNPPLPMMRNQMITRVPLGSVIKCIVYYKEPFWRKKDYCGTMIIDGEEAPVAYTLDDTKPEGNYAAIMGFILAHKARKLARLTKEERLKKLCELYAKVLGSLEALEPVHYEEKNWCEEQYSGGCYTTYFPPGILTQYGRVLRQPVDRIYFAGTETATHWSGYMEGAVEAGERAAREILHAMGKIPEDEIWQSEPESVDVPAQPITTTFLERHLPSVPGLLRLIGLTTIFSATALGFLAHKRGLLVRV

[2] = biological target: T2, Amine oxidase [flavin-containing] A (Homo sapiens, UniProt P21397); test: Inhibition of human MAO-A at 10^-4 to 10^-3 M using tyramine hydrochloride as substrate after 30 mins by Amplex Red reagent based horseradish peroxidase enzyme-coupled fluorescence assay relative to control; conditions: 0.5 h
T2 sequence (P21397 whole entry): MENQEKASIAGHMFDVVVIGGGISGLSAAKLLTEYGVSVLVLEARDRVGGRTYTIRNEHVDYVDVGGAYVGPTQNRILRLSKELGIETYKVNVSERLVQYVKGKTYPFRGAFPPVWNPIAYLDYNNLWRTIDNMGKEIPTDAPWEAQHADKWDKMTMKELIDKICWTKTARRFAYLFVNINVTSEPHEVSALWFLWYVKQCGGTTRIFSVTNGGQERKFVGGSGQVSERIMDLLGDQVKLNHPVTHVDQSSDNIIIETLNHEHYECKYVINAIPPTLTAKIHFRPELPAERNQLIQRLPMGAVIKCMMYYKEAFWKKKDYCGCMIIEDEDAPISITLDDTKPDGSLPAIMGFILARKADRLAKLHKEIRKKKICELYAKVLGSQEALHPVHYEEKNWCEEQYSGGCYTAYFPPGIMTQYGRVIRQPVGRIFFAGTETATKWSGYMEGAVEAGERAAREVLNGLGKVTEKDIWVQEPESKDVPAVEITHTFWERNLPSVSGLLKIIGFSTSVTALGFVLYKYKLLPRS

[3] = biological target: T2, Amine oxidase [flavin-containing] A; test: Inhibition of human MAO-A using tyramine hydrochloride as substrate after 30 mins by Amplex Red reagent based horseradish peroxidase enzyme-coupled fluorescence assay
[4] = biological target: T1, Amine oxidase [flavin-containing] B; test: Inhibition of human MAO-B using tyramine hydrochloride as substrate after 30 mins by Amplex Red reagent based horseradish peroxidase enzyme-coupled fluorescence assay
[5] = species on record: Homo sapiens; test: Selectivity index, ratio of IC50 for human MAO-B to IC50 for human MAO-A
[6] = biological target: T2, Amine oxidase [flavin-containing] A; test: Reversible-competitive inhibition of human MAO-A using varying levels of tyramine as substrate after 30 mins by Lineweaver-Burk plot
[7] = system: NIH3T3; test: Cytotoxicity against mouse NIH/3T3 cells by MTT assay; assay type: cell-based
[8] = system: Salmonella typhimurium; test: Genotoxicity in Salmonella typhimurium TA98 assessed as increase in revertant colonies at 0.156 mg/ml in presence of Sprague-Dawley rat liver S9 fraction by Ames test relative to basal level; assay type: toxicity, organism-based; conditions: salmonella enterica subsp. enterica serovar typhimurium
[9] = system: Salmonella typhimurium; test: Genotoxicity in Salmonella typhimurium TA98 assessed as increase in revertant colonies at 0.3125 mg/ml in presence of Sprague-Dawley rat liver S9 fraction by Ames test relative to basal level; assay type: toxicity, organism-based; conditions: salmonella enterica subsp. enterica serovar typhimurium
[10] = system: Salmonella typhimurium; test: Genotoxicity in Salmonella typhimurium TA98 assessed as increase in revertant colonies at 0.625 mg/ml in presence of Sprague-Dawley rat liver S9 fraction by Ames test relative to basal level; assay type: toxicity, organism-based; conditions: salmonella enterica subsp. enterica serovar typhimurium
[11] = system: Salmonella typhimurium; test: Genotoxicity in Salmonella typhimurium TA98 assessed as increase in revertant colonies at 1.25 mg/ml in presence of Sprague-Dawley rat liver S9 fraction by Ames test relative to basal level; assay type: toxicity, organism-based; conditions: salmonella enterica subsp. enterica serovar typhimurium
[12] = system: Salmonella typhimurium; test: Genotoxicity in Salmonella typhimurium TA98 assessed as increase in revertant colonies at 2.5 mg/ml in presence of Sprague-Dawley rat liver S9 fraction by Ames test relative to basal level; assay type: toxicity, organism-based; conditions: salmonella enterica subsp. enterica serovar typhimurium
[13] = system: Salmonella typhimurium; test: Genotoxicity in Salmonella typhimurium TA98 assessed as increase in revertant colonies at 5 mg/ml in presence of Sprague-Dawley rat liver S9 fraction by Ames test relative to basal level; assay type: toxicity, organism-based; conditions: salmonella enterica subsp. enterica serovar typhimurium
[14] = system: Salmonella typhimurium; test: Genotoxicity in Salmonella typhimurium TA98 assessed as increase in revertant colonies at 0.156 mg/ml in absence of Sprague-Dawley rat liver S9 fraction by Ames test relative to basal level; assay type: toxicity, organism-based; conditions: salmonella enterica subsp. enterica serovar typhimurium
[15] = system: Salmonella typhimurium; test: Genotoxicity in Salmonella typhimurium TA98 assessed as increase in revertant colonies at 0.3125 mg/ml in absence of Sprague-Dawley rat liver S9 fraction by Ames test relative to basal level; assay type: toxicity, organism-based; conditions: salmonella enterica subsp. enterica serovar typhimurium
[16] = system: Salmonella typhimurium; test: Genotoxicity in Salmonella typhimurium TA98 assessed as increase in revertant colonies at 0.625 mg/ml in absence of Sprague-Dawley rat liver S9 fraction by Ames test relative to basal level; assay type: toxicity, organism-based; conditions: salmonella enterica subsp. enterica serovar typhimurium
[17] = system: Salmonella typhimurium; test: Genotoxicity in Salmonella typhimurium TA98 assessed as increase in revertant colonies at 1.25 mg/ml in absence of Sprague-Dawley rat liver S9 fraction by Ames test relative to basal level; assay type: toxicity, organism-based; conditions: salmonella enterica subsp. enterica serovar typhimurium
[18] = system: Salmonella typhimurium; test: Genotoxicity in Salmonella typhimurium TA98 assessed as increase in revertant colonies at 2.5 mg/ml in absence of Sprague-Dawley rat liver S9 fraction by Ames test relative to basal level; assay type: toxicity, organism-based; conditions: salmonella enterica subsp. enterica serovar typhimurium
[19] = system: Salmonella typhimurium; test: Genotoxicity in Salmonella typhimurium TA98 assessed as increase in revertant colonies at 5 mg/ml in absence of Sprague-Dawley rat liver S9 fraction by Ames test relative to basal level; assay type: toxicity, organism-based; conditions: salmonella enterica subsp. enterica serovar typhimurium
[20] = system: Salmonella typhimurium; test: Genotoxicity in Salmonella typhimurium TA100 assessed as increase in revertant colonies at 0.156 mg/ml in presence of Sprague-Dawley rat liver S9 fraction by Ames test relative to basal level; assay type: toxicity, organism-based; conditions: salmonella enterica subsp. enterica serovar typhimurium
[21] = system: Salmonella typhimurium; test: Genotoxicity in Salmonella typhimurium TA100 assessed as increase in revertant colonies at 0.3125 mg/ml in presence of Sprague-Dawley rat liver S9 fraction by Ames test relative to basal level; assay type: toxicity, organism-based; conditions: salmonella enterica subsp. enterica serovar typhimurium
[22] = system: Salmonella typhimurium; test: Genotoxicity in Salmonella typhimurium TA100 assessed as increase in revertant colonies at 0.625 mg/ml in presence of Sprague-Dawley rat liver S9 fraction by Ames test relative to basal level; assay type: toxicity, organism-based; conditions: salmonella enterica subsp. enterica serovar typhimurium
[23] = system: Salmonella typhimurium; test: Genotoxicity in Salmonella typhimurium TA100 assessed as increase in revertant colonies at 1.25 mg/ml in presence of Sprague-Dawley rat liver S9 fraction by Ames test relative to basal level; assay type: toxicity, organism-based; conditions: salmonella enterica subsp. enterica serovar typhimurium
[24] = system: Salmonella typhimurium; test: Genotoxicity in Salmonella typhimurium TA100 assessed as increase in revertant colonies at 2.5 mg/ml in presence of Sprague-Dawley rat liver S9 fraction by Ames test relative to basal level; assay type: toxicity, organism-based; conditions: salmonella enterica subsp. enterica serovar typhimurium
[25] = system: Salmonella typhimurium; test: Genotoxicity in Salmonella typhimurium TA100 assessed as increase in revertant colonies at 5 mg/ml in presence of Sprague-Dawley rat liver S9 fraction by Ames test relative to basal level; assay type: toxicity, organism-based; conditions: salmonella enterica subsp. enterica serovar typhimurium
[26] = system: Salmonella typhimurium; test: Genotoxicity in Salmonella typhimurium TA100 assessed as increase in revertant colonies at 0.156 mg/ml in absence of Sprague-Dawley rat liver S9 fraction by Ames test relative to basal level; assay type: toxicity, organism-based; conditions: salmonella enterica subsp. enterica serovar typhimurium
[27] = system: Salmonella typhimurium; test: Genotoxicity in Salmonella typhimurium TA100 assessed as increase in revertant colonies at 0.3125 mg/ml in absence of Sprague-Dawley rat liver S9 fraction by Ames test relative to basal level; assay type: toxicity, organism-based; conditions: salmonella enterica subsp. enterica serovar typhimurium
[28] = system: Salmonella typhimurium; test: Genotoxicity in Salmonella typhimurium TA100 assessed as increase in revertant colonies at 0.625 mg/ml in absence of Sprague-Dawley rat liver S9 fraction by Ames test relative to basal level; assay type: toxicity, organism-based; conditions: salmonella enterica subsp. enterica serovar typhimurium
[29] = system: Salmonella typhimurium; test: Genotoxicity in Salmonella typhimurium TA100 assessed as increase in revertant colonies at 1.25 mg/ml in absence of Sprague-Dawley rat liver S9 fraction by Ames test relative to basal level; assay type: toxicity, organism-based; conditions: salmonella enterica subsp. enterica serovar typhimurium
[30] = system: Salmonella typhimurium; test: Genotoxicity in Salmonella typhimurium TA100 assessed as increase in revertant colonies at 2.5 mg/ml in absence of Sprague-Dawley rat liver S9 fraction by Ames test relative to basal level; assay type: toxicity, organism-based; conditions: salmonella enterica subsp. enterica serovar typhimurium
[31] = system: Salmonella typhimurium; test: Genotoxicity in Salmonella typhimurium TA100 assessed as increase in revertant colonies at 5 mg/ml in absence of Sprague-Dawley rat liver S9 fraction by Ames test relative to basal level; assay type: toxicity, organism-based; conditions: salmonella enterica subsp. enterica serovar typhimurium

N#Cc1ccc(-c2csc(N/N=C/c3ccc(N4CCOCC4)cc3)n2)cc1
inhibition (INH) [1]: > 50% | inhibition (INH) [2]: > 50% | IC50 [3]: 54 µM | IC50 [4]: 42.9 µM | Ratio IC50 [5]: 0.795

Fc1ccc(-c2csc(N/N=C/c3ccc(N4CCCC4)cc3)n2)c(F)c1
inhibition (INH) [1]: > 50% | inhibition (INH) [2]: > 50% | IC50 [3]: 15.6 µM | IC50 [4]: 141 µM | Ratio IC50 [5]: 9.03

Fc1ccc(-c2csc(N/N=C/c3ccc(N4CCCC4)cc3)n2)cc1
inhibition (INH) [1]: > 50% | inhibition (INH) [2]: > 50% | IC50 [3]: 13.1 µM | IC50 [4]: 426 µM | Ratio IC50 [5]: 32.5

Brc1ccc(-c2csc(N/N=C/c3ccc(N4CCCC4)cc3)n2)cc1
inhibition (INH) [2]: > 50% | IC50 [3]: 61.3 µM | IC50 [4]: > 1000 µM | Ratio IC50 [5]: > 16.3

Clc1ccc(-c2csc(N/N=C/c3ccc(N4CCOCC4)cc3)n2)c(Cl)c1
inhibition (INH) [1]: > 50% | inhibition (INH) [2]: > 50% | IC50 [3]: 85.4 µM | IC50 [4]: 133 µM | Ratio IC50 [5]: 1.56

Fc1ccc(-c2csc(N/N=C/c3ccc(N4CCOCC4)cc3)n2)c(F)c1
inhibition (INH) [1]: > 50% | inhibition (INH) [2]: > 50% | IC50 [3]: 0.011 µM | IC50 [4]: 17.6 µM | Ratio IC50 [5]: 1600 | Ki [6]: 0.0044 µM | IC50 [7]: > 1000 µM | fold change (FC) [8]: 1.34 | fold change (FC) [9]: 1.07 | fold change (FC) [10]: 1.34 | fold change (FC) [11]: 2.5 | fold change (FC) [12]: 0.45 | fold change (FC) [13]: 0.36 | fold change (FC) [14]: 0.5 | fold change (FC) [15]: 0.59 | fold change (FC) [16]: 0.5 | fold change (FC) [17]: 0.5 | fold change (FC) [18]: 0.3 | fold change (FC) [19]: 0.64 | fold change (FC) [20]: 1.08 | fold change (FC) [21]: 1.4 | fold change (FC) [22]: 1.4 | fold change (FC) [23]: 1.59 | fold change (FC) [24]: 1.14 | fold change (FC) [25]: 1.08 | fold change (FC) [26]: 0.61 | fold change (FC) [27]: 1 | fold change (FC) [28]: 0.61 | fold change (FC) [29]: 0.45 | fold change (FC) [30]: 0.22 | fold change (FC) [31]: 0.33

Clc1ccc(-c2csc(N/N=C/c3ccc(N4CCCC4)cc3)n2)c(Cl)c1
inhibition (INH) [1]: > 50% | inhibition (INH) [2]: > 50% | IC50 [3]: 103 µM | IC50 [4]: 131 µM | Ratio IC50 [5]: 1.26
